The source of these data is PubChem BioAssay (NCI).

SMILES strings stand for the structures.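 Growth conditions: 96-well plates. Treatment: test compound, 48 hours, 5 concentrations. Analysis: linear interpolation between bracketing concentrations; unreached endpoints set to highest concentration. The concentration for 50% growth inhibition is given as GI50. TGI: concentration producing complete growth inhibition.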

What all share (assay): growth of human tumour cells (NCI), 48 h
In experiment [1] the test system is EKVX NSCLC.
Experiment [2] has as its system HCT-116 colon.
The test system of experiment [3] is HCT-15 colon.
Experiment [4] has as its system HT29 colon.
The test system of experiment [5] is NCI-H522 lung.
Experiment [6] relates to NCI/ADR-RES ovarian.
In experiment [7] the test system is SF-268 CNS.
Experiment [8] relates to SK-MEL-5 melanoma.
For experiment [9], the system named is SW-620 colon.
For experiment [10], the system named is 786-0 renal.
For experiment [11], the system named is COLO 205 colon.

With `COc1cc(-c2n/c(=C\c3c(O)[nH]c4cc(Cl)ccc34)cc3c2=Nc2ccccc2-3)cc(OC)c1OC`, the GI50 is 4.99 µM in experiment [1]; 3.48 µM in experiment [2]; 30.9 µM in experiment [3]; 2.67 µM in experiment [4]; 3.85 µM in experiment [5]; 2.84 µM in experiment [6]. Besides, the GI50 in experiment [7] is 2.72 µM; in experiment [8], 3.98 µM; in [9], 4.07 µM. The TGI is 27.1 µM in experiment [1]; 13.7 µM in experiment [2]; more than 100 µM in experiment [3]; 7.05 µM in experiment [4]; 18.4 µM in [5]; 20.1 µM in experiment [6]. In addition, the TGI in experiment [7] stood at 10.5 µM; in experiment [8] it was 23 µM; in [9], 54.9 µM.
With `CC(=O)C(CN(C)C)C(c1ccccc1)c1c(O)c2ccccc2oc1=O` (stereo unspecified), the TGI in [10], in experiment [11], in experiment [1], in [2], in [3] and in experiment [4] was more than 100 µM in each case. Besides, the TGI in experiment [5], in experiment [7], in experiment [8] and in experiment [9] was more than 100 µM throughout.
`NCCSCc1ccccc1Cl`: the TGI in experiment [10], in experiment [1], in experiment [2], in experiment [3], in [4] and in experiment [5] was more than 100 µM each time. In addition, the TGI in experiment [6], in [7], in [8] and in [9] was more than 100 µM each time.
Consider `Cc1c(N/C=C(\C#N)C(=O)c2ccc(Cl)cc2)c(=O)n(-c2ccccc2)n1C`, for which the TGI in experiment [10], in experiment [11], in experiment [1], in experiment [2], in experiment [3] and in experiment [5] was more than 100 µM throughout. Besides, the TGI in [6], in experiment [8] and in experiment [9] was more than 100 µM in each case.
In the case of `O=S(=O)(c1ccccc1)n1cc(C[P+](c2ccccc2)(c2ccccc2)c2ccccc2)c2ccccc21`, the TGI in experiment [10] came to 16.3 µM; in experiment [11], 4.78 µM; in experiment [1] it was 15.8 µM; in [2], 15.2 µM; in [3] it was 30.5 µM; in experiment [4], 13.4 µM. For the same compound, the TGI in experiment [5] turned out to be 11.3 µM; in [7] it was 18.6 µM; in experiment [8] it was 3.29 µM; in experiment [9], 17.1 µM.
Take `COc1ccc(/C=C2\Sc3nnc(CNc4ccc(Cl)cc4)n3N=C2c2cc(F)c(Cl)cc2Cl)cc1OC`: the TGI in experiment [10], in experiment [1], in experiment [2], in experiment [3], in experiment [4] and in experiment [5] was more than 100 µM each time. The TGI in experiment [6] was 52.3 µM; in experiment [7] it was more than 100 µM; in experiment [8] it was more than 100 µM; in [9] it was 36.9 µM.
Regarding `NCCCCC(=O)c1cccnc1`, the TGI in [10], in [1], in [2], in experiment [3], in experiment [4] and in [5] was more than 100 µM each time. Moreover, the TGI in experiment [7], in experiment [8] and in experiment [9] was more than 100 µM throughout.
With `c1cncc(O[Si](Oc2cccnc2)(Oc2cccnc2)Oc2cccnc2)c1`, the TGI in experiment [11], in experiment [1], in [3], in experiment [4], in experiment [8] and in [9] was more than 100 µM throughout.
As to `O=C(O)CN1CCN(CC(=O)N2CCN(C(=O)OCc3ccccc3)CC2)CCN(CC(=O)O)CCN(CC(=O)N2CCN(C(=O)OCc3ccccc3)CC2)CC1`, the TGI in experiment [10], in [11], in [1], in experiment [2], in experiment [3] and in experiment [4] was more than 100 µM each time. In addition, the TGI in experiment [5], in experiment [6], in [8] and in [9] was more than 100 µM each time.
`COc1ccc(N=Nc2c(C)c(C#N)c(=S)n(C3OC(CO)C(O)C(O)C3O)c2C)cc1` (stereo unspecified): the TGI in experiment [10], in experiment [11], in experiment [2], in experiment [3], in [4] and in [6] was more than 100 µM each time. For the same compound, the figures for the TGI in experiment [7], in [8] and in experiment [9] were more than 100 µM, 35.1 µM and more than 100 µM, respectively.
In the case of `COc1ccccc1N=N/C(=N\NC(=O)c1ccc(C)cc1)c1ccc(N(CCC#N)CCC#N)cc1C`, the TGI was more than 100 µM in experiment [10]; 37.3 µM in experiment [11]; more than 100 µM in experiment [1]; more than 100 µM in [2]; more than 100 µM in experiment [3]; more than 100 µM in experiment [4]. In addition, the TGI in experiment [6] is more than 100 µM; in experiment [7], more than 100 µM; in experiment [8], 53.6 µM; in [9], more than 100 µM.
As to `CCCCCCCCCCCCOc1ccc(/C=C/C2=[N+](CCCl)CCO2)cc1`, the TGI in [10] was 42.7 µM; in experiment [11], more than 100 µM; in [1], more than 100 µM; in [2], 33.5 µM; in [3] it was more than 100 µM; in [4] it was more than 100 µM. Also, the TGI in experiment [5] is 47 µM; in [6] it was more than 100 µM; in experiment [8] it was more than 100 µM; in experiment [9] it was more than 100 µM.
`O=C(CN1CCOCC1)c1ccc2c(c1)oc(=O)n2CCN1CCCC1`: the TGI in [10], in experiment [11], in experiment [1], in experiment [2], in experiment [3] and in experiment [4] was more than 100 µM each time. For the same compound, the TGI in experiment [6], in [7], in experiment [8] and in experiment [9] was more than 100 µM in each case.
